Laboratory results published in paper PMC6017909, “Synthesis and Evaluation of the Tumor Cell Growth Inhibitory Potential of New Putative HSP90 Inhibitors” (Molecules : A Journal of Synthetic Chemistry and Natural …, 2018).

Tests used:
A431 = assay: Cell-counting assay, 72-h drug exposure; format: cell-based; conditions: Homo sapiens, A-431, read-out: Cell Growth Inhibitory Activity A431 IC50 72 h
Source text: (§1) For the cytotoxic activity studies and determination of GI50 concentrations in three different tumor cell lines, the cell culture conditions are described in Section 3.5. For the studies on the effect on % viable cells, cell cycle, cellular proliferation, and apoptosis, culture conditions are described in Section 3.6.1. For the remaining studies, the epithelial carcinoma cell line A431 and the non-small cell lung carcinoma cell line NCI-H460 were routinely grown in RPMI 1640 (Lonza, Vierviers, Belgium), supplemented with 10% (v/v) heat-inactivated fetal bovine serum (FBS, GIBCO, Invitrogen, Paisley, UK). The human peritoneal mesothelioma cell line STO was kindly provided by Dr. N. Zaffaroni (IRCCS Istituto Nazionale Tumori, Milan, Italy) and grown in 50/50 DMEM-Ham’s F12 medium (Lonza, Vierviers, Belgium), supplemented with 10% (v/v) heat-inactivated foetal bovine serum and 2 mM L-glutamine (L-Gln). All cell lines were maintained at 37 °C in a 5%/95% CO2/air atmosphere. All the compounds tested were freshly prepared by dissolving powder in dimethylsulfoxide (DMSO) (BDH Prolabo, Milan, Italy) and following dilution in culture medium. Cells were incubated with drugs for 48 h or 72 h (unless otherwise stated) at 37 °C in culture medium supplemented with 10% (v/v) heat-inactivated FBS; drug concentrations used for each assay and duration of treatments are reported in Legends to Figures.
(§2) Cellular sensitivity to drugs was evaluated by a cell-counting assay after 72-h drug exposure. Cells in the logarithmic phase of growth were seeded in duplicate into 6-well plates. Twenty-four hours after seeding, the drug was added to the medium. Cells were harvested 72 h after drug exposure and counted with a cell counter.

STO = assay: Cell-counting assay, 72-h drug exposure; format: cell-based; conditions: Homo sapiens, read-out: Cell Growth Inhibitory Activity STO IC50 72 h
Source text: as §1, §2

[1] = Viable cell number, trypan blue exclusion assay; format: cell-based; conditions: human, NCI-H460 cells, read-out: Number of viable cells (in relation to Blank cells)
Method: NCI-H460 cells were plated in 6-well plates (1 × 10^5 cells/well) in RPMI-1640 medium with UltraGlutamine I and 25 mM Hepes (Lonza) supplemented with 10% FBS (PAA) at 37 °C in a humidified incubator with 5% CO2 for 24 h. […] These concentrations corresponded respectively to 5.2 μM and 7.8 μM for compound 5 and to 3.2 μM and 4.8 μM for compound 8. Cells were also incubated with medium only (Blank) or with the vehicle (solvent, H2O), corresponding to the highest concentration used when testing the compounds. Following treatment with the compounds, cells were further processed as follows.
Cell number and % viable cells was determined with the Trypan blue exclusion assay.

NCI-H460 [2] = assay: Apoptosis, Annexin V-FITC/PI flow cytometry; format: cell-based, human; conditions: for % Apoptosis: 48 h, sum of early and late apoptosis; for Induction of apoptosis at cytotoxic concentrations: GI50 and 1.5× GI50, 48 h, Annexin V and propidium iodide
Method: NCI-H460 cells were plated in 6-well plates (1 × 10^5 cells/well) in RPMI-1640 medium with UltraGlutamine I and 25 mM Hepes (Lonza) supplemented with 10% FBS (PAA) at 37 °C in a humidified incubator with 5% CO2 for 24 h. […] These concentrations corresponded respectively to 5.2 μM and 7.8 μM for compound 5 and to 3.2 μM and 4.8 μM for compound 8. Cells were also incubated with medium only (Blank) or with the vehicle (solvent, H2O), corresponding to the highest concentration used when testing the compounds. Following treatment with the compounds, cells were further processed as follows. Following 48 h treatment, the levels of apoptosis were assessed using the “Human AnnexinV-FITC/PI apoptosis” kit (Bender MedSystems, Wien, Austria) as previously described. Briefly, cell pellets were resuspended in binding buffer and further incubated with Annexin V-FITC and with propidium iodide. Samples were analyzed in a FACSCalibur flow cytometer (BD Biosciences, Erembodegem, Belgium), plotting at least 15,000 events and using the FlowJo 7.6.5 software (Tree Star, Inc., Ashland, OR, USA).

NCI-H460 [3] = assay: Cellular proliferation, BrdU incorporation assay; format: cell-based, human; conditions: 48 h
Method: NCI-H460 cells were plated in 6-well plates (1 × 10^5 cells/well) in RPMI-1640 medium with UltraGlutamine I and 25 mM Hepes (Lonza) supplemented with 10% FBS (PAA) at 37 °C in a humidified incubator with 5% CO2 for 24 h. […] These concentrations corresponded respectively to 5.2 μM and 7.8 μM for compound 5 and to 3.2 μM and 4.8 μM for compound 8. Cells were also incubated with medium only (Blank) or with the vehicle (solvent, H2O), corresponding to the highest concentration used when testing the compounds. Following treatment with the compounds, cells were further processed as follows. Following 47 h treatment, cells were further incubated with 10 μM bromodeoxyuridine (BrdU; Sigma) for 1 h. Cells were then trypsinized and fixed in 4% paraformaldehyde (in PBS) for 30 min. Cytopsins were prepared and a 20 min denaturation step was carried out by incubating slides in 2 M HCl. Following incubation with mouse anti-BrdU primary antibody (1/10, Dako) for 1 h at room temperature (RT), cells were further incubated with anti-mouse-Ig-FITC (1/100, Dako) for 30 min, at RT [21]. Slides were then mounted with Vectashield mounting medium with DAPI (Vector Laboratories). The percentage of BrdU incorporating cells was determined by counting a minimum of 500 cells per slide (except for one experiment in which due to technical difficulties less cells were counted when testing the compound 8) using a fluorescence microscope (DM2000; Leica, Wetzlar, Germany ).

| Structure (SMILES) | IC50 (A431) | IC50 (STO) | viability at 48 h, 5.2 µM ([1]; 5.2 μM (GI50)) | viability at 48 h, 7.8 µM ([1]; 7.8 μM (1.5× GI50)) | % Apoptosis (NCI-H460 [2]; 5.2 μM, Blank 7.0 ± 0.6) | % Apoptosis (NCI-H460 [2]; 7.8 μM, Blank 7.0 ± 0.6) | Induction of apoptosis at cytotoxic concentrations (NCI-H460 [2]) | Percentage of BrdU-incorporating cells (NCI-H460 [3]; 1.5× GI50 (7.8 μM), untreated cells 32%) | Percentage of BrdU-incorporating cells (NCI-H460 [3]; GI50 (5.2 μM), untreated cells 32%) | viability at 48 h, 3.2 µM ([1]; 3.2 μM (GI50)) | viability at 48 h, 4.8 µM ([1]; 4.8 μM (1.5× GI50)) | % Apoptosis (NCI-H460 [2]; 3.2 μM, Blank 5.2 ± 0.9) | % Apoptosis (NCI-H460 [2]; 4.8 μM, Blank 5.2 ± 0.9) | Percentage of BrdU-incorporating cells (NCI-H460 [3]; 1.5× GI50 (4.8 μM), untreated cells 31%) | Percentage of BrdU-incorporating cells (NCI-H460 [3]; GI50 (3.2 μM), untreated cells 31%) |
| --- | --- | --- | --- | --- | --- | --- | --- | --- | --- | --- | --- | --- | --- | --- | --- |
| O=c1c2ccccc2oc2c[n+](Cc3ccccc3)ccc12.[Br-] [Compound 5, 2-Benzyl-10-oxo-10H-9-oxa-2-azonia-anthracene bromide] | 1360 ± 50 nM | 2700 ± 800 nM | 71% | 49% | 7.2 ± 1.4% | 7.3 ± 0.9% | did not induce apoptosis | 22% | 25% |  |  |  |  |  |  |
| O=c1c2ccccc2sc2c[n+](Cc3ccccc3)ccc12.[Br-] [Compound 8, 2-Benzyl-5-oxo-5H-thiochromeno[2,3-c]pyridin-2-ium bromide] | 260 ± 400 nM | 260 ± 80 nM |  |  |  |  | induced apoptosis |  |  | 57% | 29% | 6.7 ± 1.4% | 12.5 ± 1.7 % | 21% | 26% |
